SMILES,melting point [°C],boiling point [°C],ready biodegradability,log10 vapour pressure (mmHg),log10 Koc (L/kg),log10 Koa,log10 Henry constant (atm·m³/mol),log10 biodegradation half-life (days)
O=C(O)c1cccc2cccc(C(=O)O)c12,260,–,–,–,–,–,–,–
CCC/C=C/COC(C)=O,–,166,–,–,–,–,–,–
CC(C)c1cccc(O)c1O,47,–,–,–,–,–,–,–
C=Cc1ccccc1C=C,–,–,not readily biodegradable,–,–,–,–,–
C=Cc1ccc(C=C)cc1,31,–,not readily biodegradable,–,–,–,–,–
OC(c1ccccc1)(C(F)(F)F)C(F)(F)F,–,160,–,–,–,–,–,–
O=Nc1c(O)ccc2ccccc12,110,–,–,–,–,–,–,–
Nc1ccc([N+](=O)[O-])cc1O,208,–,–,–,–,–,–,–
O=C(O)CCCCCl,18,230,–,–,–,–,–,–
CCCCCCCCCCc1ccccc1,-14.4,298,–,-2.89,–,–,–,–
O=C(O)c1cccc([N+](=O)[O-])c1C(=O)O,–,–,not readily biodegradable,–,–,–,–,–
CC1=NN(c2ccccc2)C(=O)C1,129,–,–,–,–,–,–,–
CN(C)c1cccc2c(S(N)(=O)=O)cccc12,220,–,–,–,–,–,–,–
COc1ccc(CO)cc1,25,259,–,–,–,–,–,–
C[C@@H]1C[C@@H]([C@H](O)CC2CC(=O)NC(=O)C2)C(=O)[C@@H](C)C1,119,–,readily biodegradable,–,–,–,–,–
NC(=O)c1ccc([N+](=O)[O-])cc1Cl,172,–,readily biodegradable,–,–,–,–,–
CCOC(=O)C(C(=O)OCC)=C(C)C,–,176,–,–,–,–,–,–
c1ccc(CN(Cc2ccccc2)c2ccccc2)cc1,69,–,–,–,–,–,–,–
CC(=O)Oc1ccc2c(c1)CC[C@@H]1[C@@H]2CC[C@]2(C)C(=O)[C@H](OC(C)=O)C[C@@H]12,180,–,–,–,–,–,–,–
C=C(C)F,–,-24,–,–,–,–,–,–
CCOC(=O)c1cccc([N+](=O)[O-])c1,47,297,–,–,–,–,–,–

SMILES,melting point [°C],boiling point [°C],ready biodegradability,log10 vapour pressure (mmHg),log10 Koc (L/kg),log10 Koa,log10 Henry constant (atm·m³/mol),log10 biodegradation half-life (days)
N#CCc1ccccc1C(F)(F)F,33,–,–,–,–,–,–,–
CCCCC(=O)Cl,-110,109,–,–,–,–,–,–
Ic1ccc(I)s1,41.5,–,–,–,–,–,–,–
Nc1ccc(F)cc1,-0.8,182,–,–,–,–,–,–
CC(=O)Nc1ccccc1Cl,89,–,–,–,1.58,–,–,–
CC[N+](CC)(CC)CCC(O)(c1ccccc1)C1CCCCC1.[I-] (configuration not stated),182,–,–,–,–,–,–,–
CC1=CCC(=O)O1,18,–,–,–,–,–,–,–
CCOC(=O)Cn1c(=O)sc2cccc(Cl)c21,79.2,–,–,-5.56,–,–,–,–
COc1c(OC)c(OC(C)=O)c2ccccc2c1OC(C)=O,138,–,–,–,–,–,–,–
O=C1CCC(=O)N1,126,288,–,-4.12,–,–,–,–
CCCCCCCCCCCCCCC(C)O (configuration not stated),44,314,–,–,–,–,–,–
CC1(C)[C@H]2CC=C(CO)[C@@H]1C2,–,222,–,–,–,–,–,–
CCCCCCCCCCCCOS(=O)(=O)c1ccccc1,–,–,readily biodegradable,–,–,–,–,–
c1cc(-c2ccncc2)ccn1,111,305,–,-4.25,–,–,–,–
CCBr,-119,38.5,not readily biodegradable,2.67,–,2.11,–,–
CCC(C)C(C)O (configuration not stated),–,134,–,–,–,–,–,–
CCOP(=S)(OCC)OCCSCC,–,–,–,–,2.59,–,–,–
COc1cccc(C(=O)NN(C(=O)c2cc(C)cc(C)c2)C(C)(C)C)c1C,204,–,–,–,–,–,–,–
C=CC=COC,–,91.5,–,–,–,–,–,–
CCN(C(=O)n1nnn(-c2ccccc2Cl)c1=O)C1CCCCC1,79,–,–,-9.43,–,–,–,–
CCN(CC)C(=O)N(CC)CC,–,209,–,–,–,–,–,–

SMILES,melting point [°C],boiling point [°C],ready biodegradability,log10 vapour pressure (mmHg),log10 Koc (L/kg),log10 Koa,log10 Henry constant (atm·m³/mol),log10 biodegradation half-life (days)
O=c1cnn([C@@H]2O[C@H](CO)[C@@H](O)[C@H]2O)c(=O)[nH]1,158,–,–,–,–,–,–,–
C/C(=C\c1ccccc1)C(=O)O,80,–,–,-3.04,–,–,–,–
c1ccccc1,–,80,readily biodegradable,1.98,1.75,2.78,-2.26,0.778
Clc1ccccc1I,0.7,234,–,–,–,–,–,–
C=C(CC(=O)OCC)C(=O)OCC,58.5,228,–,–,–,–,–,–
NC(=O)c1ccc(Br)cc1,192,–,–,–,–,–,–,–
CCNCC.Cl,228,–,–,–,–,–,–,–
COCCOCCOC,-68,162,not readily biodegradable,0.471,–,–,–,–
OCCBr,–,150,–,–,–,–,–,–
CCC(CO)CC(C)C (configuration not stated),–,–,–,-0.625,–,–,–,–
CCCOC(=O)Nc1ccccc1,–,–,–,–,2.06,–,–,–
Nc1ccc2ccc3ccccc3c2c1,143,–,–,–,–,–,–,–
CC(C)CC(C)(C)C,-107,99.2,not readily biodegradable,1.69,–,–,–,1.6
ICI,6.1,182,–,0.0792,–,–,-3.49,–
Oc1ccc(Cl)c2cccnc12,130,–,–,–,–,–,–,–
S=c1[nH]c2ccccc2[nH]1,298,–,not readily biodegradable,–,–,–,–,–
CCCOP(=O)(OCCC)Oc1ccc(SC)cc1,–,–,–,-6.05,–,–,–,–
CC(C)CCC[C@@H](C)[C@H]1CC[C@H]2[C@@H]3CC[C@@H]4C[C@H](O)CC[C@]4(C)[C@H]3CC[C@]12C,143,–,–,–,–,–,–,–
CC(C)COC(=O)c1ccc(N)cc1,64.5,–,–,–,–,–,–,–
O=[N+]([O-])c1ccc(C2CCCCC2)cc1,58.5,–,–,–,–,–,–,–
CC1=CCC2CC1C2(C)C (configuration not stated),–,–,readily biodegradable,0.677,–,–,-0.873,–
